Assay results: patent US12227488B2, “Small molecule degraders of Helios and methods of use” (DANA-FARBER CANCER INSTITUTE, INC., priority 2018, dated 2025)
Entries after “also recorded” stand apart in the source; their conditions may differ.

How the values were obtained:
[1] = target: T1, CRBN and Helios (IKZF2) (Homo sapiens, UniProt Q96SW2+Q9UKS7); test: TR-FRET dimerization assay (CRBN-IKZF2 ternary complex formation); assay type: binding; details: for TR-FRET signal (520/490 ratio), CRBN-Helios dimerization, in words: FIG. 1B, 2A, 5; for TR-FRET-IKZF2 (Normalized to CC-885): n=1
T1 construct: His (N); Strep (N)
How it was run: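 BODIPY-labeled DDB1ΔB-CRBN and in vitro biotinylated IKZF2 were treated with increasing compound concentrations plus tracer Terbium-Streptavidin and incubated 15 min at rt. Recruitment was quantified as the 520/490 nm TR-FRET ratio; values are single measurements (n=1), each averaged from at least three technical replicates.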

[2] = target: T2, IKZF1 (Homo sapiens, UniProt Q13422); test: Cellular degradation assay, eGFP-IKZF1Δ fusion with mCherry reporter in Flp-In 293 cells; assay type: cell-based; details: for IKZF1 GFP/RFP Relative Abundance: 5 h incubation, n=1
T2 construct: expressed in transfected cells; host or cells: Flp-In 293
How it was run: (§1)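 Flp-In 293 cells stably expressing eGFP-tagged degron fusions with P2A-mCherry reporter were treated with compound titrations (0.5% DMSO) for 5 hours. Imaging quantified GFP-positive/mCherry-positive cell fraction per well; DC50 at 5 h from nonlinear variable-slope fit.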

[3] = target: T3, Ikaros (Homo sapiens, UniProt Q13422+Q96SW2); test: Immunoblot for Ikaros in Jurkat cells; assay type: cell-based
T3 construct: endogenous in cells; host or cells: Jurkat
Experimental: (§2) A focused library of imide analogs was synthesized and assessed for their ability to induce dimerization between CRBN and Helios in a time-resolved fluorescence energy transfer (TR-FRET) assay (FIG. 1A).
(§3) Cells were lysed in M-PER buffer (Thermo Scientific) containing protease/phosphatase inhibitor cocktail (Roche). Protein concentration was measured using a BCA assay (Pierce™) Equivalent amounts of each sample were loaded on 4-12% Bis-Tris gels (Invitrogen™) transferred to nitrocellulose membranes, and immunoblotted with the indicated antibodies. IRDye®800-labeled goat anti-rabbit IgG and IRDye®680-labeled goat anti-mouse IgG (LI-COR®) secondary antibodies were purchased from LI-COR®, and membranes were detected on an Odyssey® detection system (LI-COR® Biosciences).

[4] = target: T4, SALL4 ZNF1-2 (Homo sapiens, UniProt Q96SW2+Q9UJQ4); test: Cellular degradation assay, eGFP-SALL4 ZnF1-2 fusion with mCherry reporter in Flp-In 293 cells; assay type: cell-based; details: 5 h incubation, n=1
T4 construct: IKZF1Δ, IKZF2Δ, GSPT1 and SALL4 ZnF1-2 were subcloned; expressed in transfected cells; host or cells: Flp-In 293
How it was run: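 Flp-In 293 cells stably expressing eGFP-SALL4 ZnF1-2 fusion plus mCherry reporter were treated with compound titrations (0.5% DMSO) for 5 hours. Imaging at 488/561 nm gave, per well, the fraction of GFP-positive among mCherry-positive cells.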

[5] = test system: IKZF2; test: Cellular degradation assay, eGFP-IKZF2Δ fusion with mCherry reporter in Flp-In 293 cells; assay type: cell-based; details: for IKZF2 GFP/RFP Relative Abundance: 5 h incubation, n=1
How it was run: as §1

[6] = target: T5, Helios (Homo sapiens, UniProt Q96SW2+Q9UKS7); test: Immunoblot for Helios in Jurkat cells; assay type: cell-based
T5 construct: endogenous in cells; host or cells: Jurkat
Experimental: as §2, §3
as §3, with “Odyssey” for “Odyssey®”

[7] = target: GSPT1 (Homo sapiens, UniProt P15170+Q96SW2); test: Cellular degradation assay, eGFP-GSPT1 fusion with mCherry reporter in Flp-In 293 cells; assay type: cell-based; design: expressed in transfected cells; host or cells: Flp-In 293; details: for GSPT1 GFP/RFP Relative Abundance: 5 h incubation, n=1
How it was run: as §1

[8] = test system: Ikzf2 mRNA; test: qPCR for Ikzf2 mRNA in Jurkat cells; assay type: cell-based; details: 4 h, n=3
Experimental: FIG. 2A is a graph of 520/490 TR-FRET ratios. […] FIG. 2C is immunoblots from wildtype or Crbn−/− Jurkat cells treated with compound 54 for 4 h. FIG. 2D is immunoblots from Jurkat cells co-treated with compound 54 (1 μM) and bortezomib (bort.; 1 μM) or MLN4924 (1 μM) for 4 h. FIG. 2E is a bar graph showing quantitative polymerase chain reaction (qPCR) for Ikzf2 messenger ribonucleic acid (mRNA) from Jurkat cells treated for 4 h (n=3; N.S.=not significant).

[9] = target: T6, Helios (Mus musculus, UniProt P81183); test: Immunoblot for Helios in Hoxb8-immortalized myeloid progenitor cells (wildtype or Crbn^I391V/I391V); assay type: cell-based, murine; details: Hoxb8 myeloid progenitor cells from wildtype or Crbn^I391V/I391V mice, 18 h
T6 construct: endogenous in cells; host or cells: Hoxb8-immortalized myeloid progenitor cells from mice
Experimental: IKZF1/3 are not susceptible to IMiD-mediated degradation in murine cells, and this can be rescued by mutating a single amino acid on the surface of murine CRBN (Ile 391) to the analogous human residue (Val). To determine whether Helios follows a similar pattern, Hoxb8-immortalized myeloid progenitor cells derived from wildtype or Crbn^I391V/I391V mice were treated with compound 54. […] Thus, Helios is degradable in murine cells only if they express ‘humanized’ CRBN.

[10] = compound concentration 6.6667E−05
[11] = compound concentration 6.6667E−06
[12] = compound concentration 6.6667E−07 (667 nM)
[13] = compound concentration 2.00E−05
[14] = compound concentration 2.00E−06
[15] = compound concentration 2.00E−07
[16] = half degradation at 5 h (DC50,5 h), triplicate, 11 point dose response

T1 sequence (Q96SW2 whole entry): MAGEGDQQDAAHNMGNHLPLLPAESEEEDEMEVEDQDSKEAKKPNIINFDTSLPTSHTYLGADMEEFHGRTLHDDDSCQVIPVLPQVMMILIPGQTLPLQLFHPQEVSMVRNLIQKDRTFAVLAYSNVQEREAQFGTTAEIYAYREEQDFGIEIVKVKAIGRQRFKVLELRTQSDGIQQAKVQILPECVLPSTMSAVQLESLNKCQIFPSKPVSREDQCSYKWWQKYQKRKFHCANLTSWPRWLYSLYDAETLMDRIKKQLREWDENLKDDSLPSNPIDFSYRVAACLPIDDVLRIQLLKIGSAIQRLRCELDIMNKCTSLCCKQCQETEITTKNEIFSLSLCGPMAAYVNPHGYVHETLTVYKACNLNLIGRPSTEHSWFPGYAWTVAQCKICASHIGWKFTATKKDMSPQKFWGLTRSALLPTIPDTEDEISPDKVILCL
T1 sequence (Q9UKS7 whole entry): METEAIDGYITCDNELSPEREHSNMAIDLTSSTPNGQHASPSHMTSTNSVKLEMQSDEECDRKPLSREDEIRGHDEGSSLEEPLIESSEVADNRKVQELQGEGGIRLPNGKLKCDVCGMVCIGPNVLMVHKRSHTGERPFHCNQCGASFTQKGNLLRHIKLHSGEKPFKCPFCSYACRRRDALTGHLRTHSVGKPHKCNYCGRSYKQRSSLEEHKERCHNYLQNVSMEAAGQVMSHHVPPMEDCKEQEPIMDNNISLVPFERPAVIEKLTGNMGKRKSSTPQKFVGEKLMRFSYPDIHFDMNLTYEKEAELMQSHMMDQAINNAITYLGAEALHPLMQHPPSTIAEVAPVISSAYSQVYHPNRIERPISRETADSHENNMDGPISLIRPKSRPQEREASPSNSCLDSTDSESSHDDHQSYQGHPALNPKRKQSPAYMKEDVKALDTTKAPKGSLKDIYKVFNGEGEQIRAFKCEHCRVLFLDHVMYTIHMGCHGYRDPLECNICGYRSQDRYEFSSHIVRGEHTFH
T2 sequence (Q13422 83-213 isoform Q13422-7 limits assumed): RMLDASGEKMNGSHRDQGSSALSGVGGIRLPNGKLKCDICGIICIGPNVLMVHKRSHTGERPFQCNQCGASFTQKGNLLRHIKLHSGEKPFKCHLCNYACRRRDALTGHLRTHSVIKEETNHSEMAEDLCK
T2 sequence (Q96SW2 whole entry partner, the tested form may be a part): as the sequence (Q96SW2 whole entry) above
T2 sequence (Q16531 2-1140 partner limits assumed): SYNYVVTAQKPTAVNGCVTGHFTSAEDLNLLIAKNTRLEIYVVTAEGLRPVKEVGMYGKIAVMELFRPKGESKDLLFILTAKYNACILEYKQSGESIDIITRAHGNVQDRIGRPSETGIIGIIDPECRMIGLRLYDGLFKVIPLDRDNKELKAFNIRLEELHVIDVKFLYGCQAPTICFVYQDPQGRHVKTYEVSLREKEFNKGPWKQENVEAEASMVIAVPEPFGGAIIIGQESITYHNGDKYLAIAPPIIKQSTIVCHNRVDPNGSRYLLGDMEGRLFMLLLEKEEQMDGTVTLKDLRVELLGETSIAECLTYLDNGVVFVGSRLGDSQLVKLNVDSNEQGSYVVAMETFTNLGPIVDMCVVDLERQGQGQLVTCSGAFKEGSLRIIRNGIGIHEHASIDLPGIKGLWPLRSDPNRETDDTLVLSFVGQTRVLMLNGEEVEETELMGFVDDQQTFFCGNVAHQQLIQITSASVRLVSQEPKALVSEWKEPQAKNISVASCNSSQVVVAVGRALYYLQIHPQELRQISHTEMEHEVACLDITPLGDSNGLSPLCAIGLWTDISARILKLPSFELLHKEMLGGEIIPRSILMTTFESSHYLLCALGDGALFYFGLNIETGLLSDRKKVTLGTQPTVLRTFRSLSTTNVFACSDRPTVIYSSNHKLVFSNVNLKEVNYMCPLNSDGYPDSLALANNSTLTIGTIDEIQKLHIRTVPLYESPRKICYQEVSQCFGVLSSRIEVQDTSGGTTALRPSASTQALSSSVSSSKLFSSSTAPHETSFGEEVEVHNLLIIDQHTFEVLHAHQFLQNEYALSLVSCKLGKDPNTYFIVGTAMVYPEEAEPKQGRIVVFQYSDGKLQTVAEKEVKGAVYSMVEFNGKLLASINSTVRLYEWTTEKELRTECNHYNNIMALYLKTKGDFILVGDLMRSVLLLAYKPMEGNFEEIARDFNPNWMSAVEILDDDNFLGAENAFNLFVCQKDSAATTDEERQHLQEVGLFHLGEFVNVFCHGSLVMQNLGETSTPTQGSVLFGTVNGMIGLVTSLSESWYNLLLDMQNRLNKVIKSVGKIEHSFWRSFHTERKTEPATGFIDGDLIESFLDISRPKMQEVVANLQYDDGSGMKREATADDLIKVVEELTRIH
Sequence of GSPT1 (P15170 whole entry, the tested form may be a part): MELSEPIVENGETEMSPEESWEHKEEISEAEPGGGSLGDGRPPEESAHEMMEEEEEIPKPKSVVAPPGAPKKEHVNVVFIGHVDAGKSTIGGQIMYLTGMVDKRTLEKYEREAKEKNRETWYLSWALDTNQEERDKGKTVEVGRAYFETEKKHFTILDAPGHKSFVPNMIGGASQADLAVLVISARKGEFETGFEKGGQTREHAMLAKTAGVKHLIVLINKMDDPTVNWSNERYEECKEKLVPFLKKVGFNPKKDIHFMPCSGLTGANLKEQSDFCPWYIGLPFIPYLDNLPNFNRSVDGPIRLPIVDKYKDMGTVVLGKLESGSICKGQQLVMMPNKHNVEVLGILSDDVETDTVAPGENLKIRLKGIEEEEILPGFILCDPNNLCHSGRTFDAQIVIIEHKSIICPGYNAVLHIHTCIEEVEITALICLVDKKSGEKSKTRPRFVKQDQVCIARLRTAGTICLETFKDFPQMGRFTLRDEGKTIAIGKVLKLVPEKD
Sequence of GSPT1 (Q96SW2 whole entry, the tested form may be a part): as the sequence (Q96SW2 whole entry) above
Sequence of GSPT1 (Q16531 whole entry partner, the tested form may be a part): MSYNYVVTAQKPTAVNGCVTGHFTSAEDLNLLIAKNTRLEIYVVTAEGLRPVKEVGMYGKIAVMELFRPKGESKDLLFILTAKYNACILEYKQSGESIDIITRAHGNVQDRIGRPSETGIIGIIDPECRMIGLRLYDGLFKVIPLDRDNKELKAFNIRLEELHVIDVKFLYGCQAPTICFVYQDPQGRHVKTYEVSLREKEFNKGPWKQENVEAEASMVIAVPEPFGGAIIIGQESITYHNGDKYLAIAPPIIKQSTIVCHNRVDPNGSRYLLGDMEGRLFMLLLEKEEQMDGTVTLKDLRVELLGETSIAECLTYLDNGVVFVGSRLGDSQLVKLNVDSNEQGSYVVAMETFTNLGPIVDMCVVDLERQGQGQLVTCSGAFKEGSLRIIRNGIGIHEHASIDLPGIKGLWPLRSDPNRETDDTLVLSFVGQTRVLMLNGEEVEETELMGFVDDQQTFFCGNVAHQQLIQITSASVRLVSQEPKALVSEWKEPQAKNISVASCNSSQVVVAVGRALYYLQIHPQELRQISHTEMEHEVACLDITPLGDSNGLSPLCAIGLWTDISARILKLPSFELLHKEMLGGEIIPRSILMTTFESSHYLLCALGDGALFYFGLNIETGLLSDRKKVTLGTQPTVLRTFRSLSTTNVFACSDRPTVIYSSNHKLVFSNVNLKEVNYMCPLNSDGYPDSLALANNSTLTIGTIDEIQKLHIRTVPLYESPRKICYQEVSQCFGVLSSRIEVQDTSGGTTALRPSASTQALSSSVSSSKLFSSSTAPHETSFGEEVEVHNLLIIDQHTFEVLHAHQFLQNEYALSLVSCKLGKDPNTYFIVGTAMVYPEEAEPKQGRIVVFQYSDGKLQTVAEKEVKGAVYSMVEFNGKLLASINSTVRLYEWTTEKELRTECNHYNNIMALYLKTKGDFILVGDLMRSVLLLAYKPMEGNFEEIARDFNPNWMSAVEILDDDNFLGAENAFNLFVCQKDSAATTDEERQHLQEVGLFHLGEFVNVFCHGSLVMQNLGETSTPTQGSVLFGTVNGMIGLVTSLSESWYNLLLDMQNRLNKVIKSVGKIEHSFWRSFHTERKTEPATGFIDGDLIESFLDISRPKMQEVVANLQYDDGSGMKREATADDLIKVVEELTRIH
T5 sequence (Q9UKS7 whole entry): as the sequence (Q9UKS7 whole entry) above
T5 sequence (Q96SW2 whole entry): as the sequence (Q96SW2 whole entry) above
T5 sequence (Q16531 whole entry partner): as the sequence (Q16531 whole entry partner, the tested form may be a part) above
T4 sequence (Q9UJQ4 378-438 limits assumed): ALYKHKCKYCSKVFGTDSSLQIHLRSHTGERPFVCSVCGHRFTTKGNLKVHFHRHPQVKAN
T4 sequence (Q96SW2 whole entry, the tested form may be a part): as the sequence (Q96SW2 whole entry) above
T4 sequence (Q16531 whole entry partner, the tested form may be a part): as the sequence (Q16531 whole entry partner, the tested form may be a part) above
T3 sequence (Q13422 whole entry): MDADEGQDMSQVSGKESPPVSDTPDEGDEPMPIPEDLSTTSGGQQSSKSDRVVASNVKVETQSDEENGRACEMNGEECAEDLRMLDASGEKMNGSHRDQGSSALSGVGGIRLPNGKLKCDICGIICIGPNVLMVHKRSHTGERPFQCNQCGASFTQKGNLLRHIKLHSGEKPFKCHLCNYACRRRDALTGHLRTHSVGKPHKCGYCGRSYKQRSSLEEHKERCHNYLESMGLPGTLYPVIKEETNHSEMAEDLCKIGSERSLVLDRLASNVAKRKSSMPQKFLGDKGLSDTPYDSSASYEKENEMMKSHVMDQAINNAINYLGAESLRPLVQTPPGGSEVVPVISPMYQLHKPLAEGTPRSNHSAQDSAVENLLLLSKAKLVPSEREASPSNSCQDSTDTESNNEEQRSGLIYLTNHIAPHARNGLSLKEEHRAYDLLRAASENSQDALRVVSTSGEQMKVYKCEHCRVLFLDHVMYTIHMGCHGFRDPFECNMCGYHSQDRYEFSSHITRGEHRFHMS
T3 sequence (Q96SW2 whole entry): as the sequence (Q96SW2 whole entry) above
T3 sequence (Q16531 whole entry partner): as the sequence (Q16531 whole entry partner, the tested form may be a part) above

SMILES	TR-FRET signal (520/490 ratio), CRBN-Helios dimerization, in words [1]	TR-FRET-IKZF2 (Normalized to CC-885) [1, 10]	TR-FRET-IKZF2 (Normalized to CC-885) [1, 11]	TR-FRET-IKZF2 (Normalized to CC-885) [1, 12]	IKZF1 GFP/RFP Relative Abundance [2, 13]	IKZF1 GFP/RFP Relative Abundance [2, 14]	IKZF1 GFP/RFP Relative Abundance [2, 15]	SALL4 ZNF1-2 GFP/RFP Relative Abundance [4, 13]	SALL4 ZNF1-2 GFP/RFP Relative Abundance [4, 14]	SALL4 ZNF1-2 GFP/RFP Relative Abundance [4, 15]	IKZF2 GFP/RFP Relative Abundance [5, 13]	IKZF2 GFP/RFP Relative Abundance [5, 14]	IKZF2 GFP/RFP Relative Abundance [5, 15]	GSPT1 GFP/RFP Relative Abundance [7, 13]	GSPT1 GFP/RFP Relative Abundance [7, 14]	GSPT1 GFP/RFP Relative Abundance [7, 15]	other results
Cc1ccc(NC(=O)NCc2cccc(NC3=CC(=O)N(C4CCC(=O)NC4=O)C3=O)c2)cc1Cl (centres unmarked) [Compound 44, 1-(3-chloro-4-methylphenyl)-3-(3-((1-(2,6-dioxopiperidin-3-yl)-2,5-dioxo-2,5-dihydro-1H-pyrrol-3-yl)amino)benzyl)urea]	increased activity over CC-885 at all tested concentrations	1.223	1.191	1.119	0.059	0.071	0.072	0.888	0.742	0.702	0.042	0.079	0.085	0.399	0.504	0.744	Ikaros loss (immunoblot) ([3]; 24 h treatment): induced loss of both Ikaros and Helios; Helios loss (immunoblot) ([6]; Jurkat cells, 24 h treatment): induced loss of both Ikaros and Helios; also recorded: required 24 h treatment
Cc1ccc(NC(=O)NC(C)c2cccc(NC3=CC(=O)N(C4CCC(=O)NC4=O)C3=O)c2)cc1Cl (centres unmarked) [Compound 54, 1-(3-chloro-4-methylphenyl)-3-(1-(3-((1-(2,6-dioxopiperidin-3-yl)-2,5-dioxo-2,5-dihydro-1H-pyrrol-3-yl)amino)phenyl)ethyl)urea]	scored even higher than compound 44	1.729	1.629	1.382	0.119	0.106	0.102				0.030	0.024	0.027	0.420	0.638	0.567	IKZF2 mRNA levels (qPCR) [8]: did not affect mRNA levels of IKZF2; Helios degradation in murine cells [9]: Helios was only degraded in Crbn^I391V/I391V cells; Ikaros degradation (immunoblot) ([3]; 4 h treatment): lost some degradation activity against Ikaros in comparison to compound 44; Helios degradation on co-treatment with proteasome or NAE inhibitor ([6]; Jurkat cells, 1 μM compound with 1 μM bortezomib, MLN4924 or carfilzomib, 4 h): both prevented Helios degradation; Helios degradation (immunoblot) ([6]; wildtype or Crbn−/− Jurkat cells, 4 h treatment): induced CRBN-dependent Helios degradation
Cc1ccc(NC(=O)Nc2ccc(NC3=CC(=O)N(C4CCC(=O)NC4=O)C3=O)cc2)cc1Cl (centres unmarked) [Compound 42, 1-(3-chloro-4-methylphenyl)-3-(4-((1-(2,6-dioxopiperidin-3-yl)-2,5-dioxo-2,5-dihydro-1H-pyrrol-3-yl)amino)phenyl)urea]		0.407	0.318	0.209	0.775	0.536	0.577	1.122	0.997	1.018	1.056	1.050	0.999	0.118	0.182	0.215	
Cc1ccc(NC(=O)NCc2ccc3c(c2)CN(C2CCC(=O)NC2=O)C3=O)cc1Cl (centres unmarked) [CC-885, reference compound]	some activity; also recorded: able to recruit IKZF2 to CRBN	1.065	0.982	0.953	0.133	0.071	0.077	1.000	0.876	0.852	0.277	0.281	0.289	0.240	0.041	0.012	DC50 [2, 16]: 0.56 nM; IKZF2 cellular degradation, in words ([5]; Table 1 summary): degrade the IKZF2 in cellular assay; DC50 [5, 16]: 80.7 nM; DC50 [7, 16]: 0.084 nM
O=C1CCC(N2C(=O)C=C(Nc3ccc(-n4ccnc4)cc3)C2=O)C(=O)N1 (centres unmarked) [Compound 29, 3-(3-((4-(1H-imidazol-1-yl)phenyl)amino)-2,5-dioxo-2,5-dihydro-1H-pyrrol-1-yl)piperidine-2,6-dione]		0.347	0.297	0.270	0.495	0.516	0.602	0.958	0.913	0.908	0.982	1.005	0.942	0.790	0.913	0.729	
O=C1CCC(N2C(=O)C=C(Nc3ccc4cc[nH]c4c3)C2=O)C(=O)N1 (centres unmarked) [Compound 37, 3-(3-((1H-indol-6-yl)amino)-2,5-dioxo-2,5-dihydro-1H-pyrrol-1-yl)piperidine-2,6-dione]		0.620	0.422	0.355	0.315	0.349	0.344	0.939	0.865	0.891	0.938	1.004	0.988	0.787	1.111	1.010	
